Reference: ChEMBL document CHEMBL5465560, “Selectivity Literature for EUbOPEN Chemogenomic Library” (2024)

Assays:
[1] = target: Muscarinic acetylcholine receptor M3 (Homo sapiens, UniProt P20309); assay: Selectivity interaction (GPCR panel (PDSP screen)) EUB0000311b CHRM3; details: at 10 µM
[2] = target: Angiopoietin-1 receptor (Homo sapiens) (UniProt Q02763); assay: Selectivity interaction (Millipore kinase profiler) EUB0000124b TEK; details: at 10 µM
[3] = target: Insulin receptor (Homo sapiens, UniProt P06213); details: at 3 µM
[4] = target: T1, NUAK family SNF1-like kinase 2 (Homo sapiens) (UniProt Q9H093); assay: Selectivity interaction (KinomeScan (DiscoverX)) EUB0000229b NUAK2; details: at 10 µM
T1 sequence (whole entry): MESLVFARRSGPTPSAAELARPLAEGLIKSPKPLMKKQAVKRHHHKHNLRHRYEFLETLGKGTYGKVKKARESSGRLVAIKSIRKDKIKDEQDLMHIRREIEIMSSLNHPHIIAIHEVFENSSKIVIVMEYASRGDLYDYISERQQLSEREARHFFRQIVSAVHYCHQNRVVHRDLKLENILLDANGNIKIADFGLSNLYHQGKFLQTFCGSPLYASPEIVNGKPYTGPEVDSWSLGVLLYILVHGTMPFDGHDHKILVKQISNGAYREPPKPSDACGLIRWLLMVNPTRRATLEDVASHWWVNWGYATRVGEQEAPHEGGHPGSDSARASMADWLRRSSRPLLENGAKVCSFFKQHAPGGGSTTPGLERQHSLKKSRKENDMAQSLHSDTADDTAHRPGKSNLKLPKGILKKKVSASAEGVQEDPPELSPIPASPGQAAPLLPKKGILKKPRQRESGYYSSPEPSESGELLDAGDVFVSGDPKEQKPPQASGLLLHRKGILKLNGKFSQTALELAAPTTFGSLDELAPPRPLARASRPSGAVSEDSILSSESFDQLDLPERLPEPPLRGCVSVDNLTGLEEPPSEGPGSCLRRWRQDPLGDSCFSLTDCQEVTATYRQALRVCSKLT

[5] = target: Serine/threonine-protein kinase WNK2 (Homo sapiens) (UniProt Q9Y3S1); assay: Selectivity interaction (KinomeScan (DiscoverX)) EUB0000229b WNK2; details: at 10 µM
[6] = target: Serine/threonine-protein kinase 25 (Homo sapiens) (UniProt O00506); assay: Selectivity interaction (KinomeScan (DiscoverX)) EUB0000699a STK25; details: at 10 µM
[7] = target: Cyclin-dependent kinase 13 (Homo sapiens, UniProt Q14004); assay: Selectivity interaction (ActivX KiNativ screen (kinase selectivity in THP-1 cell lysates)) EUB0000639a CDK13; type: subcellular; details: lysate
[8] = target: Epithelial discoidin domain-containing receptor 1 (Homo sapiens) (UniProt Q08345); details: at 10 µM
[9] = target: T2, Aurora kinase A (Homo sapiens) (UniProt O14965); assay: Selectivity interaction (KinomeScan (DiscoverX)) EUB0000595a STK6; details: at 10 µM
T2 sequence (whole entry): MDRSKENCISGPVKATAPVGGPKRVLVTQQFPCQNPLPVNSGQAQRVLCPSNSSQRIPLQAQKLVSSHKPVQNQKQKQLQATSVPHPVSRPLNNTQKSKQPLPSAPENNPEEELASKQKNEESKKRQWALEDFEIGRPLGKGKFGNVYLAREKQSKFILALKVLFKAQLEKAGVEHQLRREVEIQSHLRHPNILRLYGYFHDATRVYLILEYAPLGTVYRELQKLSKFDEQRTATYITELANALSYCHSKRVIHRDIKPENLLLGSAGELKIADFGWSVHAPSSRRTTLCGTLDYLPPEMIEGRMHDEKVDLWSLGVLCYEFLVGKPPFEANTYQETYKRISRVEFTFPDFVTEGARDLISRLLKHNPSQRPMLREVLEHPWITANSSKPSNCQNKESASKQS

[10] = target: Ribosomal protein S6 kinase alpha-3 (Homo sapiens, UniProt P51812); assay: Selectivity interaction (ActivX KiNativ screen (ex vivo kinase selectivity in human PBMCs)) EUB0001619a RPS6KA3; type: cell-based; details: PBMC, at 1 µM
Sequence of Ribosomal protein S6 kinase alpha-3 (P51812 whole entry): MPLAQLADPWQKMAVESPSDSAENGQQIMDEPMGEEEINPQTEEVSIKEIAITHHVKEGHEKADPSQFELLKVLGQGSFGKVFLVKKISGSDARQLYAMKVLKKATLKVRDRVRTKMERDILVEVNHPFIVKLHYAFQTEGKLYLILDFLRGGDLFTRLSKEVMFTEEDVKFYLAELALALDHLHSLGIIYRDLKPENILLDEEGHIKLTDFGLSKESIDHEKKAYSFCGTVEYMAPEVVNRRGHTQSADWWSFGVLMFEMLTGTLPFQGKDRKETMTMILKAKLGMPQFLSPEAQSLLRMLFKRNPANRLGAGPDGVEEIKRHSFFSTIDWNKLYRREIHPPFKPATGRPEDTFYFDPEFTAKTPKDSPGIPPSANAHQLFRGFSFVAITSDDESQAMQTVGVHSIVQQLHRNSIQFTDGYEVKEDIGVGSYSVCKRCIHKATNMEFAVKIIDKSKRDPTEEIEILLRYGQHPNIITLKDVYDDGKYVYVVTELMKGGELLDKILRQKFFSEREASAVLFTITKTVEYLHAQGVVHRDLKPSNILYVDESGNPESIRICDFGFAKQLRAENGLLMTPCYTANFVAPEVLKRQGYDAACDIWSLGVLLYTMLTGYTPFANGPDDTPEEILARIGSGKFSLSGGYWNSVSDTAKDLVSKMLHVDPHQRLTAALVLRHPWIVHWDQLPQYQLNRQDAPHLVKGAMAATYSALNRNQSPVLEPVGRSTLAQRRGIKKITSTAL

Sequence of Cyclin-dependent kinase 13 (Q14004 whole entry, looked up, the tested form may be a part): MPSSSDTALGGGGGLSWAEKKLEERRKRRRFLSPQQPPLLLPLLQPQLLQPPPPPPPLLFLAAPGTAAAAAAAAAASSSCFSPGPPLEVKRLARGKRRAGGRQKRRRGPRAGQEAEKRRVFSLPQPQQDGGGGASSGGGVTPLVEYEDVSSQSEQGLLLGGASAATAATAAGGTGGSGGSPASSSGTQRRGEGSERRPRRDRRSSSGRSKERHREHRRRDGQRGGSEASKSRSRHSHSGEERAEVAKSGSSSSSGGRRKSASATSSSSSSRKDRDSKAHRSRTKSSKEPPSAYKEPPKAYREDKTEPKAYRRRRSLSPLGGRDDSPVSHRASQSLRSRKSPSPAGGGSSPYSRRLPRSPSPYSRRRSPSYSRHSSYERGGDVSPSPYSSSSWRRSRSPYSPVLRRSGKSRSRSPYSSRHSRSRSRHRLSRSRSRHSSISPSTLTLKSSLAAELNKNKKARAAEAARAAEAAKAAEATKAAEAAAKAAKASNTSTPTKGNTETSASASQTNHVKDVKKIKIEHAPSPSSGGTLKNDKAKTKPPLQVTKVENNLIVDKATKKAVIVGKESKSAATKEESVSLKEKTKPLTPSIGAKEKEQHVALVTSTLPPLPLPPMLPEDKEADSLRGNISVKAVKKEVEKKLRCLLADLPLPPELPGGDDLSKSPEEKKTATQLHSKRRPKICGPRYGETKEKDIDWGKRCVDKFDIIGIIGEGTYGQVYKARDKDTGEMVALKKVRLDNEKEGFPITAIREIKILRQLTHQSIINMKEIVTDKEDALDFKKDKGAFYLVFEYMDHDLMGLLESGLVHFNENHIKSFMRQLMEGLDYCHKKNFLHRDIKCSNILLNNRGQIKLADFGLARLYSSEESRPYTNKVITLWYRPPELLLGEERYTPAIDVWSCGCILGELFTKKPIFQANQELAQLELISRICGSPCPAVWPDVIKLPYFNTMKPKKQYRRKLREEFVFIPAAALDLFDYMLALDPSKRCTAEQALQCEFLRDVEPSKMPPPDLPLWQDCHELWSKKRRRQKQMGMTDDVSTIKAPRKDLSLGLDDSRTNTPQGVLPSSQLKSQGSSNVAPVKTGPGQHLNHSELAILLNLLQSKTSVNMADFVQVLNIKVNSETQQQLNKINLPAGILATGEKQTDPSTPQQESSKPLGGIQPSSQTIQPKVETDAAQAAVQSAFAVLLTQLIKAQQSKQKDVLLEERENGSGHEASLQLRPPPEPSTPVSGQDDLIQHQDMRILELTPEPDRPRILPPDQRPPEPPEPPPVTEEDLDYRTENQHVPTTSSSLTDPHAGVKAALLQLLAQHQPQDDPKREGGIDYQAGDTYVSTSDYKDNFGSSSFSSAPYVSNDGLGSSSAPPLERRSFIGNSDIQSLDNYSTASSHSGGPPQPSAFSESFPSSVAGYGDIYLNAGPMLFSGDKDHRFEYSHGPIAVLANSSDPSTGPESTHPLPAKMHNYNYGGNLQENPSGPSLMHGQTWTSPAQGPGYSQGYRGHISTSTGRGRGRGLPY
Sequence of Angiopoietin-1 receptor (Homo sapiens) (Q02763 whole entry): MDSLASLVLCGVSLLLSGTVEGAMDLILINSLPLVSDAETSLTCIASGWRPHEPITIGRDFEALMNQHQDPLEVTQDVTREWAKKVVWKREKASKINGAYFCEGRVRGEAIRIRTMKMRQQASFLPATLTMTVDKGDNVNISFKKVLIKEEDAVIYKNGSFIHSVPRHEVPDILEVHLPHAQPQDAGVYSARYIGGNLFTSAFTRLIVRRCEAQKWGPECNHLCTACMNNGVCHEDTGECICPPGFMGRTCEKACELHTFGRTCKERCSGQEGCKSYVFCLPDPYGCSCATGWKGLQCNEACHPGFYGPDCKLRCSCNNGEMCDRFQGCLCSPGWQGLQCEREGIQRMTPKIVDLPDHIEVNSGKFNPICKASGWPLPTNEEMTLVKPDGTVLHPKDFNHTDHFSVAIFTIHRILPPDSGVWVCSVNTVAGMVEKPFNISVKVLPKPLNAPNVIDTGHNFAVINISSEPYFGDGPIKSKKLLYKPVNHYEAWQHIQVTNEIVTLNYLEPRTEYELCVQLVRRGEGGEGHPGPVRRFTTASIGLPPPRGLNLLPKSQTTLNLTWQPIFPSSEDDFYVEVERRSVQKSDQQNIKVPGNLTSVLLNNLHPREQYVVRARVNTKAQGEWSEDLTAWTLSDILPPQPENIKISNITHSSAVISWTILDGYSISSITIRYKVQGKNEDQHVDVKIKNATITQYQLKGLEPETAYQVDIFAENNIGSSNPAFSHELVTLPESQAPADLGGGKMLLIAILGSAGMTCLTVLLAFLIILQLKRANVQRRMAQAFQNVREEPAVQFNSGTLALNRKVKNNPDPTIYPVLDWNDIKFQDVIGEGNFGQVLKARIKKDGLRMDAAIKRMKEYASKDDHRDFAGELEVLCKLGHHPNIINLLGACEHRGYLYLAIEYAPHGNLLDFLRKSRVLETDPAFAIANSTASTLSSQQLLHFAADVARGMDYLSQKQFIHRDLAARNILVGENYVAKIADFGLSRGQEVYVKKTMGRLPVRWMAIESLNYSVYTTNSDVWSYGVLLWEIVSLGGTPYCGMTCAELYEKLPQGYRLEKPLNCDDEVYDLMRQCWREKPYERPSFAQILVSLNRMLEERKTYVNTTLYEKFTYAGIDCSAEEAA
Sequence of Insulin receptor (P06213 28-758 limits assumed): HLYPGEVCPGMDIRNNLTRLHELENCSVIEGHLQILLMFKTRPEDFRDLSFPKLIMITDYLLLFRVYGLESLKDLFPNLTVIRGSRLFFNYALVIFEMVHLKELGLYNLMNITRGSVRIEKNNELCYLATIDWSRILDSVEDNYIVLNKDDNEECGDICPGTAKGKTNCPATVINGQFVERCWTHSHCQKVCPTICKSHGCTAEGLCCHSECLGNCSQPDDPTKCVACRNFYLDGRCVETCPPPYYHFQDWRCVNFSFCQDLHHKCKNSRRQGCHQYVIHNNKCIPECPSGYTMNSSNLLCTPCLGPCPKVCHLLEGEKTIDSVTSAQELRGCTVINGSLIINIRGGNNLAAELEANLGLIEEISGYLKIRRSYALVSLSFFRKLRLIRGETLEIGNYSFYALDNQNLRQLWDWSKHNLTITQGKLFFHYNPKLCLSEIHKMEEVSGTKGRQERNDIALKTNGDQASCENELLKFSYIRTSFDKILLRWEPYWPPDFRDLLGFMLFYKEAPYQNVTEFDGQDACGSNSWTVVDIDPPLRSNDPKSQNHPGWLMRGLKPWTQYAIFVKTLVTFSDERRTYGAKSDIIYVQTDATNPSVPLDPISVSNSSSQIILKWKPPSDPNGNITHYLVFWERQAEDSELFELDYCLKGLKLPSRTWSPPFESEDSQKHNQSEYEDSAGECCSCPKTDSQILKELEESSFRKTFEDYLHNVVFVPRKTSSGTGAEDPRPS
Sequence of Insulin receptor (P06213 763-1382 limits assumed): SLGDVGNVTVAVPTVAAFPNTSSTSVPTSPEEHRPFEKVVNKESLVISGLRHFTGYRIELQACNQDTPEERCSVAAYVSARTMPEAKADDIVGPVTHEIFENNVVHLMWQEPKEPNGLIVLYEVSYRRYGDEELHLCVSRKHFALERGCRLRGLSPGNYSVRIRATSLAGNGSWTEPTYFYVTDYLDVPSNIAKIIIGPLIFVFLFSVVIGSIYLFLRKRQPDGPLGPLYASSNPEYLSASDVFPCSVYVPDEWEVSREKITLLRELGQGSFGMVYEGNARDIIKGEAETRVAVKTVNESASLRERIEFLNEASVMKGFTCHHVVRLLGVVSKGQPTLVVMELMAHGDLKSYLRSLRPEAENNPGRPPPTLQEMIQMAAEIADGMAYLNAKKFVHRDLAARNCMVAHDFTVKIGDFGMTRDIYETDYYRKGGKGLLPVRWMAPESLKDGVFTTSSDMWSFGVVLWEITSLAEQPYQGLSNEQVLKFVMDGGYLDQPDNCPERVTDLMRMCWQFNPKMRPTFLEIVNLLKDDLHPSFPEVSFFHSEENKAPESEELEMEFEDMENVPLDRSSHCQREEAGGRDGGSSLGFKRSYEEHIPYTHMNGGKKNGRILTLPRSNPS

Work on `CCc1ccccc1C(=O)Nc1n[nH]c2c(C)c(F)c(C3C(C#N)=C(C)N(C)C(C)=C3C#N)cc12` [BAY-3827] yielded a % of inhibition [1] of 22.5%.

With `CC(=O)Nc1cccc(-n2c(=O)n(C3CC3)c(=O)c3c(Nc4ccc(I)cc4F)n(C)c(=O)c(C)c32)c1` the % of control [2] was 103%.

Work on `CCc1cc(Nc2nccc(-c3c(-c4ccc(OC)c(C(=O)Nc5c(F)cccc5F)c4)nc4ccccn34)n2)c(OC)cc1N1CCC(N2CCN(S(C)(=O)=O)CC2)CC1` yielded a % of inhibition [3] of 69%.

Work on `COc1cc(N(C)c2ccnc3ccc(C(F)(F)F)cc23)cc(OC)c1OC` yielded a % binding [4] of 86% and a % binding [5] of 100%.

`CCN(CC)CCCCNc1ncc2cc(-c3cc(OC)cc(OC)c3)c(NC(=O)NC(C)(C)C)nc2n1` showed a % of control [6] of 9.4%.

For `CC[C@@H]1[C@H](F)C(=O)N[C@@H]1COc1nccc2cc(C(N)=O)c(OC)cc12` [ZIMLOVISERTIB], the % of inhibition ([7]; at 0.01 µM) was 3.8%, the % of inhibition ([7]; at 0.04 µM) was -10.7% and the % of inhibition ([7]; at 0.2 µM) was -1.5%. For the same compound, the % of inhibition ([7]; at 1 µM) was -2.6% and the % of inhibition ([7]; at 5 µM) was 5.1%.

`COCC(=O)NC/C=C/c1ccc2ncnc(Nc3ccc(Oc4ccc(C)nc4)c(C)c3)c2c1` [CP-724714] was tested, and the % of control [8] was 52% and the % of control [9] was 100%.

Work on `N#Cc1cccc(-c2c[nH]c3ncnc(N4CCOCC4)c23)c1` yielded a % of inhibition [10] of 10%.
